The results in this text go back to ChEMBL document CHEMBL1201862, “PubChem BioAssay data set” (2004).

Active and inactive are the calls of the source. Cut-off read from the data, not from the text of the source, for most assays here: actives have a measured IC50 and inactives only a lower limit. Where only a bound is given, the exact number is not on record here.

Test [1] has as its target T1, Oxysterols receptor LXR-beta (Homo sapiens, UniProt P55055).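 Note: Cell-based luminescence dose-response assay of agonist activity at LXR, run as a confirmatory counterscreen to a daf-12 agonist screen; HEK293 cells with Gal4-LXR fusion and GAL4-driven luciferase reporter; agonist potency from rising luciferase signal of a Gal4-LXR reporter.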
T1 sequence (P55055 whole entry): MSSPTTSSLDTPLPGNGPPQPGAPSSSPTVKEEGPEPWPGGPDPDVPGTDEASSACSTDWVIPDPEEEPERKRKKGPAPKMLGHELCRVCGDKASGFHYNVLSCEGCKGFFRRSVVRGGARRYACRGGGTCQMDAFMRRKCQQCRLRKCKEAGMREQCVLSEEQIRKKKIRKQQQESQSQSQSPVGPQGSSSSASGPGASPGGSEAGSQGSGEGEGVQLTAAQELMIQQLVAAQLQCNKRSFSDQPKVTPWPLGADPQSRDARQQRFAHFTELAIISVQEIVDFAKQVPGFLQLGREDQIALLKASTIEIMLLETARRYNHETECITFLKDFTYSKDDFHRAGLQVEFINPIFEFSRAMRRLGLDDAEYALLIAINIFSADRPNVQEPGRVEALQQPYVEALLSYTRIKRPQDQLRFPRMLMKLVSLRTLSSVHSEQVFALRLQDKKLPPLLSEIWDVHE
It counts as functional, cell-based.

Test [2] concerns the target T2, Sentrin-specific protease 6 (Homo sapiens, UniProt Q9GZR1).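 Note: Luminescence-based dose-response confirmatory assay of SENP6 inhibition, following up an ultra-high-throughput screen.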
T2 sequence (Q9GZR1 whole entry): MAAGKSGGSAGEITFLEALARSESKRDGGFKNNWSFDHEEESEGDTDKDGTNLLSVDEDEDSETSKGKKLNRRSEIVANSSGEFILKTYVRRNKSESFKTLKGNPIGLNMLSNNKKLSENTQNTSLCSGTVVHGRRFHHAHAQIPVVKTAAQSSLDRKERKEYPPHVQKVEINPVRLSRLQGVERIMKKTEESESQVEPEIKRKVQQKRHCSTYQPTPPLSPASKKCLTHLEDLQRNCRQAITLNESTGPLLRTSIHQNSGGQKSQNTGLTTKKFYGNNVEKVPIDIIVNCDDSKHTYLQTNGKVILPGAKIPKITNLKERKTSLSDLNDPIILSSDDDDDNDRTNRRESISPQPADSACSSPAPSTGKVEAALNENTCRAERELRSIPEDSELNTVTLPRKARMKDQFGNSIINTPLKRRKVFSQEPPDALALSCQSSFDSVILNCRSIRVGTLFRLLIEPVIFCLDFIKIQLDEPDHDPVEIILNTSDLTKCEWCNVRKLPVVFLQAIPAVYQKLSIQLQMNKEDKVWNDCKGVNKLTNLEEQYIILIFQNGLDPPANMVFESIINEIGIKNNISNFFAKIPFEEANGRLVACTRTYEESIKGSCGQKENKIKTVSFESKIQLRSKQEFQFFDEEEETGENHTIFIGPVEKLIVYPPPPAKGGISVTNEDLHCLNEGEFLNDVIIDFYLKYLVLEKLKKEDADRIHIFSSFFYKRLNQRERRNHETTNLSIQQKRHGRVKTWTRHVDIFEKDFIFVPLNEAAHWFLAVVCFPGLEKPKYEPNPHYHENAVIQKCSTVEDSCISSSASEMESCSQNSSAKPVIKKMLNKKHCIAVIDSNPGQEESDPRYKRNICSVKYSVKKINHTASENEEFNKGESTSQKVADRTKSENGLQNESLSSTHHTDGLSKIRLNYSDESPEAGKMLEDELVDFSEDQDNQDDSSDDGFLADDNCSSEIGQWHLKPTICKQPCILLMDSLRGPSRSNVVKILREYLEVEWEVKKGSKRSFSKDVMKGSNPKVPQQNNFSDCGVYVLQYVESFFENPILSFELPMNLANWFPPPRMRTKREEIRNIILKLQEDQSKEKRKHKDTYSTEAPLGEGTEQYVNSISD
It is filed as functional.

Test [3] has as its target T3, Sentrin-specific protease 7 (Homo sapiens, UniProt Q9BQF6).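 Note: Luminescence-based dose-response confirmation of ultra-high-throughput screening hits, measuring inhibition of SENP7.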
T3 sequence (Q9BQF6 whole entry): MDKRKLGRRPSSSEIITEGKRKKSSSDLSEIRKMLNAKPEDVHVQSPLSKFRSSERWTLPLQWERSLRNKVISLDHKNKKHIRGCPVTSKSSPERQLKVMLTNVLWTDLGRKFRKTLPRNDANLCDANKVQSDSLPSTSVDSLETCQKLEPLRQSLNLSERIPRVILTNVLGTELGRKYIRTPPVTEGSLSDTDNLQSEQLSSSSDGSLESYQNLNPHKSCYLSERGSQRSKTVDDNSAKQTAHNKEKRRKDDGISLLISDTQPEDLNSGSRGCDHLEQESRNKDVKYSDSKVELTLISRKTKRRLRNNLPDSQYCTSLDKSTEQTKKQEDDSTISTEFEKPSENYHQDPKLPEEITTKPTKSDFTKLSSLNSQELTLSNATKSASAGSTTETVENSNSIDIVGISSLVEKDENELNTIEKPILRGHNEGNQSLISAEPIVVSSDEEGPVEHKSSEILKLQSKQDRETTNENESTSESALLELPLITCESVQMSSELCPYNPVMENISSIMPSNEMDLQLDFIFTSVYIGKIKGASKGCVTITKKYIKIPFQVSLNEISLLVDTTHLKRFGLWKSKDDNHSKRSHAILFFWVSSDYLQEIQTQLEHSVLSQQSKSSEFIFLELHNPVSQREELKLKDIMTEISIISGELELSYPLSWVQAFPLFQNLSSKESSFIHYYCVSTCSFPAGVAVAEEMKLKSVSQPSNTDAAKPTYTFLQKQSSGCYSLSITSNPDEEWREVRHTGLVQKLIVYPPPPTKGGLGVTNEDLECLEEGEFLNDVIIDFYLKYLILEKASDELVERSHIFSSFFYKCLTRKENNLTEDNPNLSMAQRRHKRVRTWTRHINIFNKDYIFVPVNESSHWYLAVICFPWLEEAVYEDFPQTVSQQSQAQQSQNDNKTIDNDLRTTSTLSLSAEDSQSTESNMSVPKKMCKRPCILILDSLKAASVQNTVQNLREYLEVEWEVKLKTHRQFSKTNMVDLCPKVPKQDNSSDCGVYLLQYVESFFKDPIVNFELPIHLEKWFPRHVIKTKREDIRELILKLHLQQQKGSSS
It is filed as functional.

The target in a further test is T4, Caspase-3 (Homo sapiens, UniProt P42574).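 Note: Dose-response selectivity test against caspase-3 for candidate inhibitors of sentrin-specific proteases (SENPs).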
T4 sequence (P42574 whole entry): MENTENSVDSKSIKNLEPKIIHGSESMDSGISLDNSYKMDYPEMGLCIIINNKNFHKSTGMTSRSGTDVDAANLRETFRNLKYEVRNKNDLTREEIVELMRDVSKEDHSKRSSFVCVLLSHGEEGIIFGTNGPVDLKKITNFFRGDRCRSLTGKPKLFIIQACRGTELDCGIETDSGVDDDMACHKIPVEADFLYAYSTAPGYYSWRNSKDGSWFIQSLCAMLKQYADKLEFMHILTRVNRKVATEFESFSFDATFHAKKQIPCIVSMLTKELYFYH
It is filed as functional.

Test [4] concerns the target T5, Sentrin-specific protease 8 (Homo sapiens, UniProt Q96LD8).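 Note: luminescence read-out of SENP8 inhibition, dose-response confirmation following an ultra-high-throughput screen.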
T5 sequence (Q96LD8 whole entry): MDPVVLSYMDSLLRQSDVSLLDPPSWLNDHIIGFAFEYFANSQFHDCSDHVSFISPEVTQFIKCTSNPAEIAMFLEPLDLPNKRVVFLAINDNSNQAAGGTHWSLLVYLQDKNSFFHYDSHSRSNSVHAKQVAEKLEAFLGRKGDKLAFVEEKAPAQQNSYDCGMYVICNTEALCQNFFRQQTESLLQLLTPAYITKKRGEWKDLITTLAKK
It counts as functional.

Usually EC50 stands for the concentration at which the effect is half-maximal. In general, IC50 refers to the concentration that inhibits the measured activity by half. As to `C(=N\Nc1ccccc1)/c1nc2ccccc2s1`, the EC50 (in test [1]; in “cells”) was > 67.5 µM (inactive) throughout. For the same compound, the IC50 in test [2] was > 100 µM (inactive); in test [3], 1.6 µM (active); at Caspase-3, 26 µM (active); in test [4], > 100 µM (inactive).
